Laboratory results taken from the supplement of paper PMC10307832.

Columns and labels:
Experiment in all cases: relative viability (nuclei count vs DMSO), 5 days (fraction); higher = more cells survive
[1] = test system: LC-2-ad
Outline: (§1)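 Nuclei were stained with Hoechst during a one-step fixation (final 0.05% Triton X-100, 1% formaldehyde, 1 ug/ml Hoechst) carried out 5 days after dosing, then counted on 4× images. The cells, lung cancer lines in 1536-well plates, had been dosed by pin tool the day after seeding with one drug alone or a fixed anchor-drug dose plus five library-drug doses (not always all listed) in √10 steps. Relative viability is the nuclei count in treated wells divided by that in vehicle wells, and each value is the median of duplicate plates.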

[2] = test system: LU99A
Outline: as §1

[3] = test system: NCI-H1793
Outline: as §1

[4] = test system: NCI-H650
Outline: as §1

[5] = test system: A-427
Outline: as §1

[6] = test system: NCI-H838
Outline: as §1

[7] = test system: NCI-H2228
Outline: as §1

[8] = test system: LOU-NH91
Outline: as §1

[9] = test system: SW 1573
Outline: as §1

[10] = test system: RERF-LC-KJ
Outline: as §1

[11] = test system: NCI-H460
Outline: as §1

[12] = test system: NCI-H1666
Outline: as §1

[13] = test system: NCI-H1993
Outline: as §1

[14] = test system: NCI-H1915
Outline: as §1

[15] = test system: PC-3 [JPC-3]
Outline: as §1

[16] = test system: NCI-H520
Outline: as §1

[17] = test system: IA-LM
Outline: as §1

[18] = test system: NCI-H1650
Outline: as §1

[19] = test system: NCI-H1355
Outline: as §1

[20] = test system: EKVX
Outline: as §1

[21] = test system: NCI-H2347
Outline: as §1

[22] = test system: LCLC-97TM1
Outline: as §1

[23] = test system: BEN
Outline: as §1

[24] = test system: NCI-H23
Outline: as §1

Compound `CCCCCCCCCCCC1=C(O)C(=O)C=C(O)C1=O` [Embelin] + COc1cc2c(Oc3ccc(NC(=O)C4(C(=O)Nc5ccc(F)cc5)CC4)cc3F)ccnc2cc1OCCCN1CCOCC1 [Foretinib] (partner 0.25 µM) has a relative viability ([1]; first compound 0.08 µM) of 0.916, a relative viability ([1]; first compound 0.8 µM) of 0.987 and a relative viability ([1]; first compound 2.53 µM) of 1.13. It also gave a relative viability ([1]; first compound 8 µM) of 0.861, a relative viability ([2]; first compound 0.08 µM) of 0.907 and a relative viability ([2]; first compound 0.8 µM) of 0.934. For the same compound, the relative viability ([2]; first compound 2.53 µM) was 0.864, the relative viability ([2]; first compound 8 µM) was 0.766 and the relative viability ([3]; first compound 0.08 µM) was 0.712. It also gave a relative viability ([3]; first compound 0.8 µM) of 0.76, a relative viability ([3]; first compound 2.53 µM) of 0.916 and a relative viability ([3]; first compound 8 µM) of 0.765. It also gave a relative viability ([4]; first compound 0.08 µM) of 0.998, a relative viability ([4]; first compound 0.8 µM) of 1.21 and a relative viability ([4]; first compound 2.53 µM) of 1.08. It also gave a relative viability ([4]; first compound 8 µM) of 1.02, a relative viability ([5]; first compound 0.08 µM) of 1.15 and a relative viability ([5]; first compound 0.8 µM) of 1.14. For the same compound, the relative viability ([5]; first compound 2.53 µM) was 1.12, the relative viability ([5]; first compound 8 µM) was 1.2 and the relative viability ([6]; first compound 0.08 µM) was 1.08. For the same compound, the relative viability ([6]; first compound 0.8 µM) was 1.11, the relative viability ([6]; first compound 2.53 µM) was 1.06 and the relative viability ([6]; first compound 8 µM) was 1.09. For the same compound, the relative viability ([7]; first compound 0.08 µM) was 1.08, the relative viability ([7]; first compound 0.8 µM) was 0.868 and the relative viability ([7]; first compound 2.53 µM) was 1.32. It also gave a relative viability ([7]; first compound 8 µM) of 0.996, a relative viability ([8]; first compound 0.08 µM) of 0.968 and a relative viability ([8]; first compound 0.8 µM) of 1.08. For the same compound, the relative viability ([8]; first compound 2.53 µM) was 1.09, the relative viability ([8]; first compound 8 µM) was 0.978 and the relative viability ([9]; first compound 0.08 µM) was 0.974. For the same compound, the relative viability ([9]; first compound 0.8 µM) was 0.998, the relative viability ([9]; first compound 2.53 µM) was 1.08 and the relative viability ([9]; first compound 8 µM) was 0.948. For the same compound, the relative viability ([10]; first compound 0.08 µM) was 0.836, the relative viability ([10]; first compound 0.8 µM) was 0.965 and the relative viability ([10]; first compound 2.53 µM) was 0.95. It also gave a relative viability ([10]; first compound 8 µM) of 1, a relative viability ([11]; first compound 0.08 µM) of 0.996 and a relative viability ([11]; first compound 0.8 µM) of 1.03. The relative viability ([11]; first compound 2.53 µM) was 1.11, the relative viability ([11]; first compound 8 µM) was 1.08 and the relative viability ([12]; first compound 0.08 µM) was 0.943. The relative viability ([12]; first compound 0.8 µM) was 1.07, the relative viability ([12]; first compound 2.53 µM) was 0.978 and the relative viability ([12]; first compound 8 µM) was 0.941. The relative viability ([13]; first compound 0.08 µM) was 0.803, the relative viability ([13]; first compound 0.8 µM) was 0.699 and the relative viability ([13]; first compound 2.53 µM) was 0.876. It also gave a relative viability ([13]; first compound 8 µM) of 0.834, a relative viability ([14]; first compound 0.08 µM) of 1.14 and a relative viability ([14]; first compound 0.8 µM) of 1.1. For the same compound, the relative viability ([14]; first compound 2.53 µM) was 1.13, the relative viability ([14]; first compound 8 µM) was 1.13 and the relative viability ([15]; first compound 0.08 µM) was 1.01. The relative viability ([15]; first compound 0.8 µM) was 1.02, the relative viability ([15]; first compound 2.53 µM) was 0.985 and the relative viability ([15]; first compound 8 µM) was 1.08. For the same compound, the relative viability ([16]; first compound 0.08 µM) was 0.891, the relative viability ([16]; first compound 0.8 µM) was 0.891 and the relative viability ([16]; first compound 2.53 µM) was 0.878. It also gave a relative viability ([16]; first compound 8 µM) of 0.807, a relative viability ([17]; first compound 0.08 µM) of 1.05 and a relative viability ([17]; first compound 0.8 µM) of 1.17. The relative viability ([17]; first compound 2.53 µM) was 1.16, the relative viability ([17]; first compound 8 µM) was 1.16 and the relative viability ([18]; first compound 0.08 µM) was 1.09. For the same compound, the relative viability ([18]; first compound 0.8 µM) was 1.05, the relative viability ([18]; first compound 2.53 µM) was 1.11 and the relative viability ([18]; first compound 8 µM) was 0.968. The relative viability ([19]; first compound 0.08 µM) was 0.969, the relative viability ([19]; first compound 0.8 µM) was 1.07 and the relative viability ([19]; first compound 2.53 µM) was 1.21. It also gave a relative viability ([19]; first compound 8 µM) of 1.03, a relative viability ([20]; first compound 0.08 µM) of 0.789 and a relative viability ([20]; first compound 0.8 µM) of 0.926. The relative viability ([20]; first compound 2.53 µM) was 0.625, the relative viability ([20]; first compound 8 µM) was 0.875 and the relative viability ([21]; first compound 0.08 µM) was 0.981. It also gave a relative viability ([21]; first compound 0.8 µM) of 0.837, a relative viability ([21]; first compound 2.53 µM) of 1.21 and a relative viability ([21]; first compound 8 µM) of 0.942. The relative viability ([22]; first compound 0.08 µM) was 0.988, the relative viability ([22]; first compound 0.8 µM) was 0.943 and the relative viability ([22]; first compound 2.53 µM) was 1.04. It also gave a relative viability ([22]; first compound 8 µM) of 0.899, a relative viability ([23]; first compound 0.08 µM) of 0.681 and a relative viability ([23]; first compound 0.8 µM) of 0.954. The relative viability ([23]; first compound 2.53 µM) was 0.677, the relative viability ([23]; first compound 8 µM) was 0.867 and the relative viability ([24]; first compound 0.08 µM) was 1.02. The relative viability ([24]; first compound 0.8 µM) was 1.09, the relative viability ([24]; first compound 2.53 µM) was 1.07 and the relative viability ([24]; first compound 8 µM) was 1.16.
